Patent US20140256656A1, “D-MANNOSE CONTRACEPTIVES” (Bio-Tech Pharmacal, Inc., priority 2002, published 2014)

Key:
[1] = tested on: sperm adhering or attaching to the egg; test: Equine-field observation of conception after D-Mannose; assay type: in vivo; details: D-Mannose in sufficient quantities at the appropriate times
Excerpt: In the equine field, Mr. […] Accordingly, the invention finds application in all fields of mammal animal husbandry to prevent unwanted cross-breeding, and to also prevent unwanted unproductive periods that are caused by undesired breeding.

bacteria = details: as described in the referenced earlier patents and applications of Dale Benedict; cited from earlier work

O=C[C@@H](O)[C@@H](O)[C@H](O)[C@H](O)CO [D-Mannose]
likelihood of conception [1]: reduces the likelihood of conception
adherence of bacteria to membranes or cell walls (bacteria): inhibits the adherence of bacteria to membranes or cell walls
